We go through one compound from patent publication US12545695B2, “Compounds for inhibiting neovascularization factors and use thereof” (UNIST (ULSAN NATIONAL INSTITUTE OF SCIENCE AND TECHNOLOGY), priority 2019, dated 2026).

Assay [1] deals with T1, TRAP1 (Homo sapiens, UniProt Q12931).
T1 construct: endogenous in cells; host or cells: 22Rv1
T1 sequence (Q12931 60-704): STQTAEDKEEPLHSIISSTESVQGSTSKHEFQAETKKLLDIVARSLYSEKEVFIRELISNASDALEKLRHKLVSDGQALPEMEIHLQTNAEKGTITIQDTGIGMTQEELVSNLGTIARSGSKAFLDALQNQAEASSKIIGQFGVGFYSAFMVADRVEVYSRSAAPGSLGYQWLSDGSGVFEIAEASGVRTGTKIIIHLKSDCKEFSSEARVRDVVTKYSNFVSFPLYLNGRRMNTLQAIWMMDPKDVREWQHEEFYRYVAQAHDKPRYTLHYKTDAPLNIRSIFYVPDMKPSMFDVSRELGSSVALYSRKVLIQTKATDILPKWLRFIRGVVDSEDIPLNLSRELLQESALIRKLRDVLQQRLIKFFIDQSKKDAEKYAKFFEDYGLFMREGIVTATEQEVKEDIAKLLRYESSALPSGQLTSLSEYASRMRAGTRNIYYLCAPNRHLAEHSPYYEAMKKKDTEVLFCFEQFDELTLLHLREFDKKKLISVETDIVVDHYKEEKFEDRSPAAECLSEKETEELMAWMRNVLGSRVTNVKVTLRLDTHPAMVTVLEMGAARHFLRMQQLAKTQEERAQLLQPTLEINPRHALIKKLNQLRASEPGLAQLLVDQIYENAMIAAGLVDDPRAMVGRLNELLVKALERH
Kind of assay: Western blot of TRAP1 client proteins (SIRT3, SDHB) in 22Rv1 cell lines. In kind it is cell-based. The arrangement: dose or concentration left out as unconfirmed. Particulars: 22Rv1 cells, 2 hours, normalized with DMSO (FIG. 24). The procedure: 22Rv1 cell lines were cultured at 37° C. and 5% CO2, and DMEM-low glucose (Sigma) including 10% fetal bovine serum and 1% penicillin & streptomycin was used as the medium.
22Rv1 cell lines were eeded in the number of 5×10^5 on a 60-millimeter plate, and cultured in 3 ml of medium for 24 hours. The next day, the cells were treated with […] SMx and SM-series (SB-U005, SB-U009, SB-U011, SB-U012), mitochondrial heat shock protein 90 (TRAP1) and cultured for 2 hours. Whole cell lysates were made from the cultured cells, electrophoresed, transferred to a PVDF membrane, and then treated with a primary antibody at 4° C. for 18 hours. The next day, the whole cell lysates were treated with a secondary antibody for 1 hour and protein expression was analyzed using a western blotting detection reagent (FIG. 24).
The cultured cells were treated with the SMx molecule and novel compound molecules SB-U005, SB-U009, SB-U011, and SB-U012 synthesized in Example 6 as drugs, and the treatment results were normalized with DMSO.
On the technique in general: A western blot detects proteins with antibodies after separation by electrophoresis.

Assay [2] relates to HIF-1α. Kind of assay: Western blot of HIF-1α in ARPE-19 cells under hypoxia. In kind it is cell-based, Human. To be noted: ARPE-19, 1 μM, 1% oxygen, 6 hours (FIG. 26). The method, then: Human retinal pigmented epithelium ARPE-19 cells were seeded in the number of 3×10^5 on a 60-millimeter plate, and cultured at 37° C. and 5% CO2, and DMEM/F-12 including 10% fetal bovine serum and 1% penicillin & streptomycin was used as the medium for 2 days. Two days later, the cells were treated with DMSO (0.5%), SMx, SB-U005, SB-U009, SB-U011 and SB-U012 at 1 μM and cultured under 1% oxygen conditions in a hypoxia chamber for 6 hours, and then a western blot experiment was performed.
After the cell culture experiment was completed, the cell culture solution was removed, the cells was washed once with cold PBS, and a RIPA solution (50 mM Tris-HCl pH 7.4, 150 mM NaCl, 0.25% Na-deoxycholate, 1% NP-40) was added thereto to harvest cells using a cell scraper. After the cells were sufficiently lysed, a 6× sample buffer was mixed with a cell suspension obtained by low-temperature centrifugation, the resulting mixture was boiled at 95° C. for 5 minutes, and then 12% SDS-PAGE was performed. […]
Thereafter, the membrane was washed twice with TBS-T (Tris-buffered saline+Tween-20), and then reacted with a secondary antibody (diluted at 1:5,000) at room temperature for 1 hour. After the membrane was washed twice with TBS-T, changes in protein expression level were measured by a Chemidoc system (GE, LAS 4000) using a Clarity Western ECL substrate (Bio-Rad).

For assay [3], the system named is neovascularization factors. Kind of assay: Expression of neovascularization factors in Muller cells (western blot / PCR RNA level analysis). The format is cell-based. Particulars: MIO-M1, 1% O2 (FIG. 9). The procedure:
Muller cells were treated with gamitrinib and SMX at 3 uM and cultured in a 1% O2 environment for 8 hours, and then total RNA was extracted (Qiagen, total RNA extraction kit). cDNA was synthesized from 1 ug of total RNA (NEB, cDNA synthesis kit). After angiogenic factors were synthesized using PCR, the RNA level was analyzed by agarose electrophoresis.
Muller cells (MIO-M1) were cultured at 37° C. and 5% CO2, and DMEM-low glucose (Sigma) including 10% fetal bovine serum and 1% penicillin & streptomycin was used as the medium. A hypoxic chamber was maintained at 37° C., 5% CO2 and 1% O2. Muller cells (MIO-M1) were seeded in the number of 4×10^5 on a 60-millimeter plate and cultured in 3 ml of the medium for 24 hours. The next day, the cells were treated with SMx, a mitochondrial heat shock protein 90 (TRAP1) inhibitor, and gamitrinib and PU-H71, which are previously developed N-terminal domain inhibitors of hsp90s, according to the concentrations shown in the drawing, and cultured in a hypoxic chamber for 24 hours. Whole cell lysates were made from the cultured cells, electrophoresed, transferred to a PVDF membrane, and then treated with a primary antibody at 4° C. for 18 hours. The next day, the whole cell lysates were treated with a secondary antibody for 1 hour and protein expression was analyzed using a western blotting detection reagent.

Assay [4] has as its system HIF1-α. The assay can be described thus: Drug activity in MIO-M1-HRE/GFP cell line under hypoxia (GFP fluorescence). The format is cell-based. Particulars: 1% O2, 24 hours (FIG. 25). The procedure: After MIO-M1 Muller cells were transfected with a 5HRE/GFP plasmid (Addgene #46926) (jetPrime kit), plasmid-transfected cells were selected using 1 mg/ml G418 (neomycin) which is a selection marker. A stable cell line was manufactured by selecting cells that were growing in the form of a colony from single cells. The manufactured stable MIO-M1-HRE/GFP cell line was aliquoted into 96 wells and treated with a drug at each concentration the next day. After the cell line was exposed to a hypoxic environment (1% O2) for 24 hours, GFP (Ex/Em: 488/507) fluorescence signals were measured by a SYNERGY NEO microplate reader (BioTek Instrument). As a negative control, DMSO, which is a solvent in which a drug was dissolved, was used, and calculation was performed based on the negative control as 100%.

Regarding `COC1=C(OC)C(=O)C(CCCCCCCCCC[P+](c2ccccc2)(c2ccccc2)c2ccccc2)=C(C)C1=O` [SMx], in assay [1], the “concentrations of the client proteins (SIRT3, SDHB)” value is recorded as “significantly decreased”. For the same compound, in assay [2], the “suppression of HIF-1α” value is reported as “effectively suppressed”. For the same compound, the “expression of well-known neovascularization factors” value in assay [3] was “suppressed”. Besides, the “suppression of neovascularization factor HIF1-α (HRE/GFP signal)” value in assay [4] is on record as “suppressed”.
